Experiment: Inhibition of potato tuber 5LOX by polarographic method
Set-up: species or system Solanum tuberosum

CCN(C)C(=O)c1cc(C(C)(C)C)c2c(c1)C(C)(C)CO2 gave an IC50 of 22000 nM.

O=C1NCCN(c2cccc([N+](=O)[O-])c2)N1 showed an IC50 of 49000 nM.

In the case of CC1CN(c2cccc(Cl)c2)NC(=O)N1 (centres undefined), the IC50 is reported as 2700 nM.

O=C1NCCN(c2cccc(F)c2)N1 showed an IC50 of 19000 nM.

Work on O=C1NCCN(c2ccccn2)N1 yielded an IC50 of 26000 nM.

CSc1cccc(N2CCNC(=O)N2)c1 gave an IC50 of 14000 nM.

With Cc1cccc(N2CCNC(=O)N2)c1 the IC50 was 15000 nM.

COCCOCC1CN(c2ccccc2)NC(=O)N1 (centres undefined) showed an IC50 of 14000 nM.

COC1(c2cccc(COc3ccc4c(-c5ccccc5)c5c(cc4c3)C(=O)OC5)c2)CCOCC1 gave an IC50 of 14 nM.

Compound COc1ccc(C(=O)/C=C/c2ccc(O)c(O)c2)c(OC)c1 has an IC50 of 40 nM.

Nc1cccc(N2CCNC(=O)N2)c1 showed an IC50 of 178000 nM.

Work on CC(C)(C)c1cc(C(=O)CCCC2CC2)cc2c1OCC2(C)C yielded an IC50 of 68000 nM.

In the case of CCCC(=O)c1cc(C(C)(C)C)c2c(c1)C(C)(C)CO2, the IC50 is reported as 8500 nM.

With CC1Cc2c(OCc3ccc(-c4ccccc4)cn3)ccc3c2c(c(CCOc2ccccc2CC(=O)O)n3Cc2cccc(F)c2)S1 (centres undefined) the IC50 was 23 nM.

CC(C)(C)c1cc(C(=O)CCCC2CC2)cc2c1OCCC2(C)C showed an IC50 of 8000 nM.

In the case of CS(=O)(=O)c1ccc(C#CC(=O)c2ccccc2)cc1, the IC50 is reported as 1000 nM.

With Cc1nccn1-c1ccc(Sc2cccc(C3(C(N)=O)CCOCC3)c2)cc1 the IC50 was 140 nM.

Work on NS(=O)(=O)c1ccc(N2N=C(C(F)(F)F)CC2c2c[nH]c3ccccc23)cc1 (centres undefined) yielded an IC50 of 41000 nM.

CC1(C)Cc2c(-c3ccccc3)c(-c3ccc([N+](=O)[O-])cc3)c(CC(=O)O)n2C1 showed an IC50 of 1500 nM.

With O=C(O)Cc1c(-c2ccc(Cl)cc2)c(-c2ccccc2)c2n1CCC2 the IC50 was 1600 nM.

FC(F)(F)c1cccc(Nc2ccccc2-c2n[nH]c(=S)o2)c1 showed an IC50 of 770 nM.

FC(F)(F)c1cccc(Nc2ccccc2-c2n[nH]c(=S)s2)c1 showed an IC50 of 770 nM.

CCN1CC/C(=C/c2cc(C(C)(C)C)c(O)c(C(C)(C)C)c2)S1(=O)=O showed an IC50 of 2500 nM.

Compound Cc1cc(C)cc(N2CCNC(=O)N2)c1 has an IC50 of 12000 nM.

For COc1cccc(N2CC(C)NC(=O)N2)n1 (centres undefined), the IC50 was 5500 nM.

In the case of O=C1NCCN(c2ccccc2)N1, the IC50 is reported as 21000 nM.

CCCCC1CN(c2ccccc2)NC(=O)N1 (centres undefined) showed an IC50 of 1500 nM.

Compound CS(=O)(=O)c1ccc(C#CC(=O)c2cccc(O)c2)cc1 has an IC50 of 300 nM.

For COC1(c2cc(F)cc(OCCc3c[nH]c4ccccc34)c2)CCOCC1, the IC50 was 850 nM.

COC1(c2cc(F)cc(OCc3cc(-c4ccccc4)n(-c4ccc(S(C)(=O)=O)cc4)n3)c2)CCOCC1 gave an IC50 of 3 nM.

COc1ccc2c(c1)c(CCN(O)C(N)=O)c(C)n2C(=O)c1ccc(Cl)cc1 gave an IC50 of 400 nM.

In the case of NS(=O)(=O)c1ccc(C#Cc2ccc(=O)n(C(F)F)c2)cc1, the IC50 is reported as 3500 nM.

Compound CS(=O)(=O)c1ccc(-n2nc(C(F)(F)F)cc2-c2ccn(O)c(=O)c2)cc1 has an IC50 of 350 nM.

With NS(=O)(=O)c1ccc(-n2nc(C(F)(F)F)cc2-c2ccn(O)c(=O)c2)cc1 the IC50 was 4900 nM.

Compound NS(=O)(=O)c1cccc(C#Cc2ccc(=O)n(O)c2)c1 has an IC50 of 15000 nM.

For COc1ccc(-c2cnsc2-c2ccc(OC)cc2)cc1, the IC50 was 20000 nM.

Work on CS(=O)(=O)c1ccc(C#Cc2ccc(=O)n(C(F)F)c2)cc1 yielded an IC50 of 3300 nM.

CS(=O)(=O)c1cccc(C#Cc2ccc(=O)n(C(F)F)c2)c1 gave an IC50 of 3200 nM.

Work on CCOC(=O)c1c(Cc2ccc(OC)cc2)[nH]c2c1cc(O)c1ccccc12 yielded an IC50 of 150 nM.

For CCOC(=O)c1c(Cc2cccc(Cl)c2)[nH]c2cc(-c3ccccc3)c(O)cc12, the IC50 was 1200 nM.

Compound COC(=O)c1c(Nc2cccc(Cl)c2)[nH]c2ccc(O)cc12 has an IC50 of 300 nM.

Work on NS(=O)(=O)c1ccccc1C#Cc1ccc(=O)n(O)c1 yielded an IC50 of 10000 nM.

For COc1ccc(-c2ssc(=S)c2-c2ccc(OC)cc2)cc1, the IC50 was 10000 nM.

Cc1ccc(-c2c(-c3ccc(S(C)(=O)=O)cc3)ssc2=S)cc1 gave an IC50 of 9000 nM.

Compound CCOC(=O)c1c(Cc2cccc(Cl)c2)[nH]c2ccc(O)cc12 has an IC50 of 2000 nM.

Work on NS(=O)(=O)c1ccc(C#Cc2ccc(=O)n(O)c2)cc1 yielded an IC50 of 68000 nM.

In the case of COc1ccc(-c2sncc2-c2ccc(C)cc2)cc1, the IC50 is reported as 8000 nM.

CS(=O)(=O)c1ccccc1C#Cc1ccc(=O)n(C(F)F)c1 showed an IC50 of 3400 nM.

CC1Cc2c(CCc3ccc(-c4ccccc4)cn3)ccc3c2C(S1)C(CC(C)(C)Cc1nnn[nH]1)N3Cc1ccc(Cl)cc1 (centres undefined) gave an IC50 of 16 nM.

CC1Cc2c(OCc3ccc(-c4ccccc4)cn3)ccc3c2C(S1)C(CC(C)(C)CC(=O)NS(C)(=O)=O)N3Cc1ccc(Cl)cc1 (centres undefined) showed an IC50 of 36 nM.

CS(=O)(=O)Nc1ccc(Oc2ccc(F)cc2)s1 showed an IC50 of 130 nM.

For O=C1NCCN(c2ccoc2-c2ccccc2)N1, the IC50 was 4900 nM.

Work on COc1cc(/C=C\C=C\c2nc3ncccc3o2)ccc1O yielded an IC50 of 370 nM.

O=C1NCCN(c2ncccc2-c2cccs2)N1 gave an IC50 of 8200 nM.

CC(C)(C)OC(=O)N1CCN(C(=O)CCCC2=CCc3ccccc32)CC1 showed an IC50 of 740 nM.

For O=C1NCCN(c2cccnc2-c2ccccc2)N1, the IC50 was 30000 nM.

CCOC(=O)c1ccc2oc(/C=C/C=C\c3ccc(O)c(O)c3)nc2c1 gave an IC50 of 20 nM.

NC(=O)C1(c2cccc(Sc3ccc(-n4cccc4)cc3)c2)CCOCC1 showed an IC50 of 270 nM.

In the case of Cc1ccc(-c2c(-c3ccc(S(C)(=O)=O)cc3)cn3c2CCC3)cc1, the IC50 is reported as 10000 nM.

In the case of O=C(CC1=CC(Cc2ccc(Cl)c(Cl)c2)c2ccccc21)N1CCOCC1 (centres undefined), the IC50 is reported as 870 nM.

For CC1=C(CCCC(=O)N2CCOCC2)c2cc(Cl)ccc2C1Cc1ccccc1 (centres undefined), the IC50 was 950 nM.

In the case of CC1(C)CCC[C@@]2(C)C1CCC(C=O)[C@@H]2CC=C(C=O)C=O (some centres undefined), the IC50 is reported as 7500 nM.

Work on COC1(c2cc(F)cc(OCC3=NN(c4ccccc4)C(c4ccccc4)C3)c2)CCOCC1 (centres undefined) yielded an IC50 of 570 nM.

With CC(C)(C)c1cc(C(=O)CCCC#N)cc2c1OCC2(C)C the IC50 was 6000 nM.

COc1cc(/C=C\C=C\c2nc3ccccc3o2)ccc1O showed an IC50 of 330 nM.

Work on CCOC(=O)c1ccc2nc(/C=C/C=C\c3ccc(O)c(OC)c3)oc2c1 yielded an IC50 of 130 nM.

For COc1cc(O)cc(/C=C/C=C/C(=O)NCCN2CCC(OC(c3ccccc3)c3ccccc3)CC2)c1, the IC50 was 150 nM.

O=C(CCCC1=CCc2ccccc21)N1CCOCC1 gave an IC50 of 2060 nM.

CC(C)(C)c1cc(Cc2cccs2)cc2c1OCC2(C)C gave an IC50 of 68000 nM.

Compound COc1cc(/C=C\C=C\c2nc3ccc(CO)cc3o2)ccc1O has an IC50 of 300 nM.

For CC(=O)Nc1ccc(/C(=C/c2ccc(S(C)(=O)=O)cc2)C(=O)O)cc1, the IC50 was 110 nM.

For COC1(c2cccc(OCc3ccc4ccccc4c3)c2)CCOCC1, the IC50 was 10 nM.

For N#Cc1cc(-c2ccoc2)c2ccc(OCc3cccc(C4(O)CCOCC4)n3)cc2c1, the IC50 was 15 nM.

O=C(O)/C=C/c1ccc(O)c(O)c1 [CAFFEIC ACID] showed an IC50 of 4000 nM.

Compound Cc1ccc(-c2cc(C(F)(F)F)nn2-c2ccc(S(N)(=O)=O)cc2)cc1 [CELECOXIB] has an IC50 of 10000 nM.

In the case of CC1(C)Cc2c(-c3ccccc3)c(-c3ccc(Cl)cc3)c(CC(=O)O)n2C1 [LICOFELONE], the IC50 is reported as 180 nM.

CS(=O)(=O)Nc1ccc([N+](=O)[O-])cc1OC1CCCCC1 [NS-398] showed an IC50 of 10000 nM.

C#CCCCC(=O)c1cc(C(C)(C)C)c(O)c(C(C)(C)C)c1 [TEBUFELONE] showed an IC50 of 3000 nM.

Compound COC1(c2cc(F)cc(OCc3ccc4c(ccc(=O)n4C)c3)c2)CCOCC1 [ZD-2138] has an IC50 of 330 nM.

Source: ChEMBL document CHEMBL1159079, “Pharmacophore modeling and virtual screening for designing potential 5-lipoxygenase inhibitors” (Bioorg Med Chem Lett, 2010)
